Patent publication US12653190B2, “Heteroaryl-triazole compounds as pesticides” (Bayer Aktiengesellschaft, priority 2020, dated 2026)

Columns and labels:
Type in all cases: in vivo
[1] = system: adult engorged female ticks (Rhipicephalus microplus); experiment: Rhipicephalus (Boophilus) microplus injection test; conditions: 168 h, egg deposition monitored after 7 days, read-out: efficacy (infertile eggs); for pest or weed control at 4 µg/tick: 4 μg/tick injected; for pest or weed control at 20 µg/tick: 20 μg/tick injected
Protocol: Rhipicephalus (Boophilus) microplus—Iniectiontest
(§1) • Solvent: dimethyl sulfoxide
To produce a suitable preparation of active compound, 10 mg of active compound are dissolved in 0.5 mL solvent, and the concentrate is diluted with solvent to the desired concentration.
Five adult engorged female ticks (Rhipicephalus microplus) are injected with 1 μL compound solution into the abdomen. The ticks are transferred into replica plates and incubated in a climate chamber.
After 7 days egg deposition of fertile eggs is monitored. Eggs where fertility is not visible are stored in a climate chamber till hatching after about 42 days. An efficacy of 100% means all eggs are infertile; 0% means all eggs are fertile.

[2] = system: Rhipicephalus (Boophilus) microplus larvae (strain Parkhurst, resistant against synthetic pyrethroids); experiment: Rhipicephalus (Boophilus) microplus in-vitro contact test, larval cattle tick; conditions: 5 μg/cm^2 (=500 g/ha), after 48 hours, read-out: efficacy (larvae dead or moribund)
Protocol: Rhipicephalus (Boophilus) microplus—In-Vitro Contact Tests Larval Cattle Tick (Strain Parkhurst, Resistant Against Synthetic Pyrethroids)
9 mg compound is solved in 1 mL acetone and diluted with acetone to the desired concentration. 250 μL of the test solution is filled in 25 mL glass test tubes and homogeneously distributed on the inner walls by rotation and tilting on a shaking device (2 h at 30 rpm). With a compound concentration of 900 ppm, an inner surface of 44.7 cm^2 and a homogeneous distribution, a dose of 5 μg/cm^2 is achieved.
After the solvent has evaporated, each test tube is filled with 20-50 cattle tick larvae (Rhipicephalus microplus), closed with a perforated lid and incubated in a horizontal position at 85% relative humidity and 27° C. in an incubator. After 48 hours efficacy is determined. The larvae are patted on the ground of the tubes and negative geotactic behavior is recorded.
An efficacy of 100% means all larvae are dead or moribund; 0% means no larvae are dead or moribund.

[3] = system: adult unfed cat fleas (Ctenocephalides felis); experiment: Ctenocephalides felis oral test; conditions: 48 h, 100 ppm in cattle blood, after 2 days
Protocol: Ctenocephalides felis—Oral Test
as §1
To produce a suitable preparation of active compound, 10 mg of active compound are dissolved in 0.5 mL solvent, and the concentrate is diluted with cattle blood to the desired concentration.
Approximately 20 adult unfed cat fleas (Ctenocephalides felts) are placed in flea chambers. The blood chamber, sealed with parafilm on the bottom, are filled with cattle blood supplied with compound solution and placed on the gauze covered top of the flea chamber, so that the fleas are able to suck the blood. The blood chamber is heated to 37° C. whereas the flea chamber is kept at room temperature.
After 2 days mortality in % is determined. 100% means all the fleas have been killed; 0% means none of the fleas have been killed.

[4] = system: larvae of the banded cucumber beetle (Diabrotica balteata); experiment: Diabrotica balteata spray test; conditions: 168 h, 100 g/ha (=32 μg/well), after 7 days, wheat seeds, read-out: efficacy (seedling growth)
Protocol: Diabrotica balteata—Spray Test
(§2) • Solvent: 78.0 parts by weight of acetone • 1.5 parts by weight of dimethylformamide • Emulsifier: alkylarylpolyglycol ether
(§3) To produce a suitable preparation of active compound, 1 part by weight of active compound is mixed with the stated amount of solvent, and the concentrate is diluted with water, containing an emulsifier concentration of 1000 ppm, to the desired concentration. Further test concentrations are prepared by dilution with emulsifier containing water.
Soaked wheat seeds (Triticum aestivum) are placed in a multiple well plate filled with agar and some water and are incubated for 1 day to germinate (5 seeds per well). The germinated wheat seeds are sprayed with a test solution containing the desired concentration of the active ingredient. Afterwards each unit is infected with 10-20 larvae of the banded cucumber beetle (Diabrotica balteata).
After 7 days efficacy in % is determined. 100% means all the seedlings have grown up like in the untreated, uninfected control; 0% means none of the seedlings have grown.

[5] = system: fall armyworm larvae (Spodoptera frugiperda); experiment: Spodoptera frugiperda spray test; conditions: in Zea mays, 168 h
Protocol: Spodoptera frugiperda—Spray Test
(§4) • Solvent: 78.0 parts by weight acetone • 1.5 parts by weight dimethylformamide • Emulsifier: alkylarylpolyglycol ether
as §3, with “solvents” for “solvent,”, “and” for “and the concentrate”
Maize (Zea mays) leaf sections are sprayed with a preparation of the active ingredient of the desired concentration. Once dry, the leaf sections are infested with fall armyworm larvae (Spodoptera frugiperda). After 7 days mortality in % is determined. 100% means all caterpillars have been killed and 0% means none of the caterpillars have been killed.

[6] = system: green peach aphid (Myzus persicae); experiment: Myzus persicae spray test; conditions: foliar, 120 h, after 5 days, Chinese cabbage leaf disks
Protocol: Myzus persicae—Spray Test
as §4
as §3, with “solvents” for “solvent,”, “and” for “and the concentrate”
Chinese cabbage (Brassica pekinensis) leaf disks infected with all instars of the green peach aphid (Myzus persicae), are sprayed with a preparation of the active ingredient of the desired concentration.
After 5 days mortality in % is determined. 100% means all aphids have been killed and 0% means none of the aphids have been killed.

[7] = system: adult mosquitoes Culex quinquefasciatus strain P00; experiment: Culex quinquefasciatus test (CULXFA surface treatment & contact assay); conditions: 24 hours after contact, read-out: efficacy (mortality); for mortality at 20 mg/m2: surface concentration 20 mg/m^2, 30 minutes exposure; for mortality at 4 mg/m2: surface concentration 4 mg/m^2, 30 minutes exposure
Protocol: Culex quinquefasciatus Test (CULXFA Surface Treatment & Contact Assay)
(§5) • Solvent: Aceton+2000 ppm rapeseed oil methyl ester (RME)
In order to produce a sufficient, active ingredient containing solution it is necessary to solve the test compound in the solvent-mix (acetone at 2 mg/ml/RME 2 000 ppm). This solution is pipetted onto a glazed tile and after evaporation of the acetone, adult mosquitoes of the species Culex Quinquefasciatus strain P00 are placed onto the dried surface. The exposure time is 30 minutes. Mortality in percent (%) is determined 24 hours after contact of the insects to the treated surface. 100% mortality means that all tested insects are dead, whereas 0% means that no insect died.

[8] = system: larvae of the southern green stink bug (Nezara viridula); experiment: Nezara viridula spray test; conditions: 96 h, after 4 days, barley plants
Protocol: Nezara viridula—Spray Test
as §2, §3
Barley plants (Hordeum vulgare) are sprayed with a test solution containing the desired concentration of the active ingredient and are infested with larvae of the southern green stink bug (Nezara viridula).
After 4 days mortality in % is determined. 100% means all the stink bugs have been killed; 0% means none of the stink bugs have been killed.

[9] = system: adult mosquitoes Aedes aegypti strain MONHEIM; experiment: Aedes aegypti test (AEDSAE surface treatment & contact assay); conditions: 24 hours after contact, read-out: efficacy (mortality); for mortality at 4 mg/m2: surface concentration 4 mg/m^2, 30 minutes exposure; for mortality at 20 mg/m2: surface concentration 20 mg/m^2, 30 minutes exposure
Protocol: Aedes aegypti Test (AEDSAE Surface Treatment & Contact Assay)
as §5
(§6) In order to produce a sufficient, active ingredient containing solution it is necessary to solve the test compound in the solvent-mix (acetone at 2 mg/ml/RME 2000 ppm). This solution is pipetted onto a glazed tile and after evaporation of the acetone, adult mosquitoes of the species Aedes aegypti strain MONHEIM are placed onto the dried surface. The exposure time is 30 minutes.
(§7) Mortality in percent (%) is determined 24 hours after contact of the insects to the treated surface. 100% mortality means that all tested insects are dead, whereas 0% means that no insect died.

[10] = system: adult flies Musca domestica strain WHO-N; experiment: Musca domestica test (MUSCDO surface treatment & contact assay); conditions: 24 hours after contact, read-out: efficacy (mortality); for mortality at 4 mg/m2: surface concentration 4 mg/m^2, 30 minutes exposure; for mortality at 20 mg/m2: surface concentration 20 mg/m^2, 30 minutes exposure
Protocol: Musca domestica Test (MUSCDO Surface Treatment & Contact Assay)
as §5
as §6, with “flies” for “mosquitoes”, “Musca domestica” for “Aedes aegypti”, “WHO-N” for “MONHEIM”
as §7

Row | SMILES | pest or weed control at 5 µg/cm2, 5 µg/cm2 [2] [%] | pest or weed control at 32 µg/disc, 100 g/ha [4] [%] | mortality at 100 g/ha [5] [%] | mortality at 100 g/ha [6] [%] | mortality at 500 g/ha [8] [%] | also measured
1 | C[C@H](NC(=O)c1cc(Cl)cc(Oc2ccccc2)c1)c1ncnn1-c1ccc(C#N)cn1 [Example I-7] | 100 | – | – | – | – | pest or weed control at 4 µg/tick [1]: 100%; pest or weed control at 20 µg/tick [1]: 100%
2 | C[C@H](NC(=O)c1cc(Cl)cc(Oc2ccc(Cl)cc2)c1)c1ncnn1-c1ccc(C#N)cn1 [Example I-8] | – | – | – | – | – | pest or weed control at 4 µg/tick [1]: 80%; pest or weed control at 20 µg/tick [1]: 100%; mortality at 100 ppm [3]: 90%
3 | C[C@H](NC(=O)c1cc(Cl)cc(Cn2cc(C(F)(F)F)cn2)c1)c1ncnn1-c1ccc(C#N)cn1 [Example I-10] | – | – | – | – | – | pest or weed control at 4 µg/tick [1]: 100%; pest or weed control at 20 µg/tick [1]: 100%; mortality at 100 ppm [3]: 100%
4 | C[C@H](NC(=O)c1cc(Br)cc(C=C(Cl)Cl)c1)c1ncnn1-c1ccc(C#N)cn1 [Example I-23] | – | – | – | – | – | pest or weed control at 4 µg/tick [1]: 100%; mortality at 100 ppm [3]: 100%
5 | C[C@H](NC(=O)c1cc(OCC=C(Cl)Cl)cc(C(F)(F)F)c1)c1ncnn1-c1ccc(C#N)cn1 [Example I-26] | 100 | 100 | – | – | – | –
6 | C[C@H](NC(=O)c1cc(OCC(Cl)=C(Cl)Cl)cc(C(F)(F)F)c1)c1ncnn1-c1ncc(C#N)s1 [Example I-28] | 100 | 100 | 100 | – | – | pest or weed control at 4 µg/tick [1]: 100%
7 | C[C@H](NC(=O)c1cc(Cl)cc(C(C)(C)C#N)c1)c1ncnn1-c1ncc(C#N)s1 [Example I-37] | – | 100 | 100 | 90 | 100 | mortality at 20 mg/m2 [7]: 80 to 100%
8 | Cc1nc([C@H](C)NC(=O)c2cc(Cl)cc(C(C)(C)C#N)c2)n(-c2ncc(C(=O)N(C)C)s2)n1 [Example I-40] | – | 80 | 100 | 90 | – | –
9 | C[C@H](NC(=O)c1cc(OC(F)(F)F)cc(C(C)(C)C#N)c1)c1ncnn1-c1ncc(C#N)s1 [Example I-43, 3-(1-Cyano-1-methyl-ethyl)-N-[(1S)-1-[2-(5-cyanothiazol-2-yl)-1,2,4-triazol-3-yl]ethyl]-5-(trifluoromethoxy)benzamide] | – | 100 | 100 | 100 | 100 | mortality at 4 mg/m2 [9]: 80 to 100%; mortality at 20 mg/m2 [9]: 80 to 100%; mortality at 4 mg/m2 [7]: 80 to 100%; mortality at 20 mg/m2 [7]: 80 to 100%; mortality at 4 mg/m2 [10]: 80 to 100%; mortality at 20 mg/m2 [10]: 80 to 100%; mortality at 100 g/ha [8]: 100%
10 | C[C@H](NC(=O)c1cc(OC(F)(F)F)cc(C(C)(C)C#N)c1)c1ncnn1-c1ccc(C#N)cn1 [Example I-45] | 100 | 100 | – | 90 | 100 | mortality at 4 mg/m2 [9]: 80 to 100%; mortality at 20 mg/m2 [9]: 80 to 100%; mortality at 4 mg/m2 [7]: 80 to 100%; mortality at 20 mg/m2 [7]: 80 to 100%; mortality at 4 mg/m2 [10]: 80 to 100%; mortality at 20 mg/m2 [10]: 80 to 100%; mortality at 100 g/ha [8]: 100%
11 | CC(C)c1cc(C(=O)N[C@@H](C)c2ncnn2-c2ccc(C#N)cn2)cc(C(C)(C)C#N)c1 [Example I-48] | 100 | 100 | 83 | – | – | –
12 | C[C@H](NC(=O)c1cc(Br)cc(C(F)(F)C2CC2)c1)c1ncnn1-c1ncc(C#N)s1 [Example I-53] | – | 100 | 100 | – | – | mortality at 20 mg/m2 [9]: 80 to 100%
13 | C[C@H](NC(=O)c1cc(CC#N)cc(OC(F)(F)F)c1)c1ncnn1-c1ncc(C#N)s1 [Example I-54] | 90 | – | 100 | – | – | –
14 | C[C@H](NC(=O)c1cc(OC(F)(F)F)cc(C(C)(C)C#N)c1)c1ncnn1-c1cnc(C#N)cn1 [Example I-56] | – | 100 | 100 | 90 | 100 | mortality at 4 mg/m2 [9]: 80 to 100%; mortality at 20 mg/m2 [9]: 80 to 100%; mortality at 100 g/ha [8]: 90%
15 | C[C@H](NC(=O)c1cc(OC2CC2)cc(OC(F)(F)F)c1)c1nc(C2CC2)nn1-c1ncc(C#N)s1 [Example I-65] | 100 | – | – | – | – | –
16 | C[C@H](NC(=O)c1cc(OC(F)(F)F)cc(C(C)(C)C#N)c1)c1ncnn1-c1ncc(C(=O)N(C)C)s1 [Example I-73] | – | 100 | 100 | 100 | 100 | –
17 | CNC(=O)c1cnc(-n2ncnc2[C@H](C)NC(=O)c2cc(OC(F)(F)F)cc(C(C)(C)C#N)c2)s1 [Example I-74] | – | 100 | 100 | 100 | 100 | mortality at 100 g/ha [8]: 100%
18 | C[C@H](NC(=O)c1cc(Cl)nc(C(C)(C)C#N)c1)c1ncnn1-c1cc(C#N)ncn1 [Example I-75] | – | 100 | 100 | – | 100 | –
